{
  "source": "patent US20250228820A1",
  "about": "“METHODS FOR PREVENTING OR SLOWING THE PROGRESSION OF COGNITIVE DECLINE OR IMPAIRMENT IN SUBJECTS DISPLAYING NORMAL COGNITIVE PERFORMANCE” (AGENEBIO, INC., priority 2022, published 2025)",
  "key": {"[1]": {"test": "Levetiracetam level in blood after treatment in the LEV-HFC trial", "format": "in vivo, human", "conditions": "after two-week treatment with levetiracetam 220 mg extended release daily", "protocol": "(§1) A phase II, randomized, double-blind, placebo-controlled crossover clinical trial of 26 CN subjects (ranging in age from 55 to 75 years) to assess the potential effect of levetiracetam on hippocampal functional connectivity (a risk marker for cognitive decline and cognitive impairment and progression to AD) was conducted. 35 patients were recruited and assessed for eligibility and the 26 eligible subjects were separated into Group A or Group B treatment groups. Group A subjects received an oral placebo tablet daily for two weeks followed by a four-week washout period; then, the subjects received an oral levetiracetam tablet daily for two weeks (i.e., two-week placebo treatment, four-week washout period, and two-week levetiracetam treatment). Group B subjects received treatment using the reverse sequence (i.e., two-week levetiracetam treatment, four-week washout period, and two-week placebo treatment). The tablet was characterized by 220 mg levetiracetam in extended release form, i.e. Tablet D (Table 2) above.\nA total of 25 participants (15 women with a mean [SD] age of 65.9 [3.8] years and 10 men with a mean [SD] age of 66.7 [5.5] years) were enrolled, randomized (12 participants to group A and 13 participants to group B), and completed the study. […]"}, "[2]": {"conditions": "cited from earlier work"}, "[3]": {"system": "hippocampal functional connectivity", "test": "Phase II placebo-controlled crossover trial: hippocampal functional connectivity by resting-state fMRI in cognitively normal subjects", "format": "in vivo, human", "protocol": "as §1\nFor each scanning session, imaging was carried out on a 3T GE MR750 whole-body scanner (GE Healthcare, Waukesha WI) with a body transmit and a 32-channel head receive coil (Nova Medical, Wilmington MA). Imaging acquisition included T1- and T2-weighted high resolution, anatomical images (TR=2521.27 ms, TE=3.596 ms, Voxel resolution: 0.5×0.5×0.8 mm3, FOV: 25.6 cm, Flip angle: 8°). […]\nTotal Functional connectivity indices (TFCI) were obtained based on the traditional region of interest (ROI)-based method (Chen et al, 2011) in which individual cerebrums were automatically parcellated into 90 regions, per the Automated Anatomical Labeling (AAL) toolbox (3), and the FCI was calculated as the summation of Pearson cross-correlation coefficients between the seed region and all other regions in the cerebrum. […] Second, functional connectivity between each ROI and the other brain regions was calculated using the Pearson cross-correlation analysis. […]"}},
  "note": "“And” between values parts separate entries of the source, which are not always exact repeats. Equal values may be shown once.",
  "data": [
    {"smiles": "CC[C@@H](C(N)=O)N1CCCC1=O", "note": "[Levetiracetam, (2S)-2-(2-oxopyrrolidin-1-yl) butanamide]", "values": [
      {"measurement": "LEV [μg] in blood, AVG", "setting": "[1]; average of 25 subjects", "value": 4.3, "unit": "µg"},
      {"measurement": "LEV [μg] in blood", "setting": "[1]; individual subjects, listed as LEV", "value": "3 μg and 4.5 μg and 4.8 μg and 6.1 μg and 2.9 μg and 4.1 μg (2×) and 5.1 μg and 4.4 μg (2×) and 6.3 μg and 4.9 μg and 4.2 μg and 3.1 μg and 2.8 μg and 3.8 μg (2×) and 5.8 μg and 5 μg and 3.2 μg and 3.4 μg and 4 μg and 4.7 μg and 2 μg and 8.2 μg"},
      {"measurement": "Plasma half-life in elderly", "setting": "[2]; expected in elderly due to decreased renal function", "value": "9 to 10", "unit": "h"},
      {"measurement": "Time of peak plasma concentrations", "setting": "[2]; following oral administration", "value": "about 1 hour"},
      {"measurement": "Plasma half-life", "setting": "[2]; in vivo", "value": "approximately 7±1 hour"},
      {"measurement": "Time to steady state", "setting": "[2]; multiple twice-daily dosing", "value": 2, "unit": "days"},
      {"measurement": "Absorption after oral administration", "setting": "[2]; oral", "value": "rapidly and almost completely absorbed"},
      {"measurement": "Effect of food on bioavailability", "setting": "[2]; oral", "value": "not affected by food"},
      {"measurement": "Functional connectivity of the hippocampus network, levetiracetam compared with placebo", "setting": "[3]; 220 mg extended release tablet (Tablet D) daily for two weeks, 25 CN subjects, paired t-test, t=−2.8044, p<0.0098, FIG. 6", "value": "significantly decreased"},
      {"measurement": "Period I FC (hippocampal functional connectivity)", "setting": "[3]; individual subjects, first two-week period, levetiracetam 220 mg extended release daily (numbers without *)", "value": "0.209 and 0.602 and 0.148 (2×) and 0.241 and 0.138 and 0.099 and 0.136 and 0.504 and 0.253 and 0.367 and 0.173 and 0.303"},
      {"measurement": "Period II FC (hippocampal functional connectivity)", "setting": "[3]; individual subjects, second two-week period after four-week washout, levetiracetam 220 mg extended release daily (numbers without *)", "value": "0.264 and 0.238 and 0.366 and 0.013 and 0.352 and 0.31 and 0.048 and 0.177 (2×) and 0.17 and 0.106 and 0.28"}
    ]}
  ]
}
